{"source": "patent US20190032115A1", "about": "“GENETIC TESTING FOR […] GRAM-NEGATIVE PROTEUS AGAINST ANTIMICROBIAL AGENTS” (Ares Genetics GmbH, priority 2015, published 2019)", "test_system": "Proteus strains (583 clinical isolates)", "test": "Antimicrobial susceptibility testing (AST) on frozen reference panels, minimal inhibitory concentration (MIC) read visually", "format": "cell-based, Proteus mirabilis, Proteus penneri and Proteus vulgaris", "details": "classical AST", "procedure": "The inventors selected 583 Proteus strains from the microbiology strain collection at Siemens Healthcare Diagnostics (West Sacramento, Calif.) for susceptibility testing and whole genome sequencing.\nFrozen reference AST panels were prepared following Clinical Laboratory Standards Institute (CLSI) recommendations. The following antimicrobial agents (with μg/ml concentrations shown in parentheses) were included in the panels: Amoxicillin/K Clavulanate (0.5/0.25-64/32), Ampicillin (0.25-128), Ampicillin/Sulbactam (0.5/0.25-64/32), Aztreonam (0.25-64), Cefazolin (0.5-32), Cefepime (0.25-64), Cefotaxime (0.25-128), Ceftazidime (0.25-64), Ceftriaxone (0.25-128), Cefuroxime (1-64), Cephalothin (1-64), Ciprofloxacin (0.015-8), Ertepenem (0.12-32), Gentamicin (0.12-32), Imipenem (0.25-32), Levofloxacin (0.25-16), Meropenem (0.12-32), Piperacillin/Tazobactam (0.25/4-256/4), Tetracycline (0.5-64), Tobramycin (0.12-32), and Trimethoprim/Sulfamethoxazole (0.25/4.7-32/608). […]\nIsolates were cultured on trypticase soy agar with 5% sheep blood (BBL, Cockeysville, Md.) and incubated in ambient air at 35±1° C. for 18-24 h. […] Panel results were read visually, and minimal inhibitory concentrations (MIC) were determined.\nProteus strains to be tested were seeded on agar plates and incubated under growth conditions for 24 hours. […] Bacterial growth was determined by observing turbidity. […]"}
{"smiles": "CC1(C)S[C@@H]2[C@H](NC(=O)[C@H](N)c3ccccc3)C(=O)N2[C@H]1C(=O)O", "note": "[ampicillin, Ampicillin]", "values": [{"measurement": "resistance of Proteus observed against the agent", "result": "high resistance"}]}
